Assay results reported in US12552772B2, “2-pyrazole anilines and related analogs for inhibiting YAP/TAZ-TEAD” (KATHOLIEKE UNIVERSITEIT LEUVEN, priority 2021, dated 2026).

Columns and labels:
Type in all cases: cell-based
NCI-H2052 = assay: Mesothelioma cell line proliferation assay (ATPlite), NCI-H2052; conditions: NCI-H2052 cells, 6 days, ATPlite cell viability
Procedure: (§1) Mesothelioma cell lines, NCI-H226 and NCI-H2052 (all sourced from the ATCC cell culture collection) are plated in 96-well plates (Corning® 96 Well White Polystyrene Microplate clear flat bottom, white polystyrene (TC-Treated)), at 1500 cells/well in full medium (RPMI 1640 ATCC modification with L-glutamine, HEPES, Phenol Red, Sodium Pyruvate, High glucose, Low sodium bicarbonate and 10% fetal bovine serum). Cells are incubated overnight at 37° C. in an incubator with 5% CO2. Then compounds, dissolved in DMSO, are added in dose-response. Cells are incubated with compound dilutions for another 6 days at 37° C. in an incubator with 5% CO2. Cell viability is quantitated using the ATPlite kit (Perkin-Elmer) and the luminescence is read-out using an Envision instrument (Perkin-Elmer). The amount of relative light units produced using the ATPlite kit is used to calculated percent of inhibition.
(§2) The activities of example compounds tested are depicted in the table below. The activity ranges A, B and C refer to EC50 values in the mesothelioma cell line proliferation assay as described as follows: “A”: EC50<1 μM; “B”: 1 μM s EC50≤10 μM and “C”: EC50>10 μM. NT: not tested.

[1] = system: YAP/TAZ-TEAD transcription; assay: Reporter gene assay for measuring the inhibition of YAP/TAZ-TEAD transcription (TEAD-responsive element luciferase reporter in Hek293T cells); conditions: 24 hours incubation
Outline: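 Hek293T cells transiently transfected with a TEAD-responsive element luciferase reporter were plated onto compounds and incubated 24 h at 37 °C/5% CO2. SteadyLite luminescence gave percent inhibition, normalised to vehicle (0%) and positive control inhibitor (100%); EC50 derived.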

NCI-H226 = assay: Mesothelioma cell line proliferation assay (ATPlite), NCI-H226; conditions: NCI-H226 cells, 6 days, ATPlite cell viability
Procedure: as §1, §2

Row | SMILES | EC50 (NCI-H2052; Homo sapiens, NCI-H2052, 144 h) | EC50 ([1]; Homo sapiens, HEK-293T) | EC50 (NCI-H226; Homo sapiens, 144 h) | EC50 (NCI-H2052) | EC50 [1] | EC50 (NCI-H226)
1 | NS(=O)(=O)CCNc1ccc(-c2ccccc2)cc1-c1ccn(Cc2cccnc2)n1 [compound 054, 2-((3-(1-(pyridin-3-ylmethyl)-1H-pyrazol-3-yl)-[1,1′-biphenyl]-4-yl)amino)ethane-1-sulfonamide] | – | < 1000 nM | < 1000 nM | – | – | –
2 | C=CC(=O)NCc1ccc(-c2ccc(F)cc2)cc1-c1nnn(C)n1 [compound 188, N-((4′-fluoro-3-(2-methyl-2H-tetrazol-5-yl)-[1,1′-biphenyl]-4-yl)methyl)acrylamide] | < 1000 nM | < 1000 nM | < 1000 nM | – | – | –
3 | C=CC(=O)NCc1cnc(-c2ccc(F)cc2)cc1-c1cc2n(n1)CCCC2 [Cpd. No. 231, N-((6-(4-fluorophenyl)-4-(4,5,6,7-tetrahydropyrazolo[1,5-a]pyridin-2-yl)pyridin-3-yl)methyl)acrylamide] | > 10000 nM | < 1000 nM | < 1000 nM | – | – | –
4 | C=CC(=O)NCc1ccc(-c2ccccc2)cc1-c1ccn(C)n1 [compound 135, N-((3-(1-methyl-1H-pyrazol-3-yl)-[1,1′-biphenyl]-4-yl)methyl)acrylamide] | – | < 1000 nM | < 1000 nM | – | – | –
5 | C=CC(=O)NCc1ccc(N2CCC(F)(F)CC2)cc1-c1ccn(C)n1 [compound 182, N-(4-(4,4-difluoropiperidin-1-yl)-2-(1-methyl-1H-pyrazol-3-yl)benzyl)acrylamide] | < 1000 nM | < 1000 nM | < 1000 nM | – | – | –
6 | C=CC(=O)NCc1cnc(-c2ccc(F)cc2)cc1-n1ccc(C)n1 [compound 240, N-((6-(4-fluorophenyl)-4-(3-methyl-1H-pyrazol-1-yl)pyridin-3-yl)methyl)acrylamide] | < 1000 nM | < 1000 nM | < 1000 nM | – | – | –
7 | C=CC(=O)NCc1ccc(-c2ccc(F)cc2)cc1-c1ccn(C2CC2)n1 [compound 166, N-((3-(1-cyclopropyl-1H-pyrazol-3-yl)-4′-fluoro-[1,1′-biphenyl]-4-yl)methyl)acrylamide] | < 1000 nM | < 1000 nM | < 1000 nM | – | – | –
8 | C=CC(=O)NCc1ncc(-c2ccc(F)cc2)cc1-c1ccn(C)n1 [compound 201, N-((5-(4-fluorophenyl)-3-(1-methyl-1H-pyrazol-3-yl)pyridin-2-yl)methyl)acrylamide] | < 1000 nM | < 1000 nM | < 1000 nM | – | – | –
9 | C=CC(=O)NCc1ccc(-c2ccc(F)cc2)cc1-c1nnn(C(F)F)n1 [compound 190, N-((3-(2-(difluoromethyl)-2H-tetrazol-5-yl)-4′-fluoro-[1,1′-biphenyl]-4-yl)methyl)acrylamide] | 1000 to 10000 nM | < 1000 nM | < 1000 nM | – | – | –
10 | C=CC(=O)NCc1ccc(-c2ccccc2)nc1-c1ccn(C)n1 [compound 194, N-((2-(1-methyl-1H-pyrazol-3-yl)-6-phenylpyridin-3-yl)methyl)acrylamide] | < 1000 nM | < 1000 nM | < 1000 nM | – | – | –
11 | C=CC(=O)NCc1ccc(-c2ccc(C(F)(F)F)cc2)cc1-c1ccn(C(F)F)n1 [compound 172, N-((3-(1-(difluoromethyl)-1H-pyrazol-3-yl)-4′-(trifluoromethyl)-[1,1′-biphenyl]-4-yl)methyl)acrylamide] | < 1000 nM | < 1000 nM | < 1000 nM | – | – | –
12 | C=CC(=O)NCc1ccc(-c2ccc(F)cc2F)cc1-c1ccn(C)n1 [compound 145, N-((2′,4′-difluoro-3-(1-methyl-1H-pyrazol-3-yl)-[1,1′-biphenyl]-4-yl)methyl)acrylamide] | < 1000 nM | < 1000 nM | < 1000 nM | – | – | –
13 | C=CC(=O)NCCNc1ccc(-c2ccccc2)cc1-c1ccn(Cc2cccnc2)n1 [compound 075, N-(2-((3-(1-(pyridin-3-ylmethyl)-1H-pyrazol-3-yl)-[1,1′-biphenyl]-4-yl)amino)ethyl)acrylamide] | – | 1000 to 20000 nM | < 1000 nM | – | – | –
14 | C=CC(=O)NCc1ccc(-c2ccc(F)cc2)cc1-c1cnn(C)n1 [compound 187, N-((4′-fluoro-3-(2-methyl-2H-1,2,3-triazol-4-yl)-[1,1′-biphenyl]-4-yl)methyl)acrylamide] | 1000 to 10000 nM | < 1000 nM | < 1000 nM | – | – | –
15 | C=CC(=O)Nc1cncc(-c2cccc(-c3ccn(Cc4ccccc4)n3)c2)c1 [compound 004, N-(5-(3-(1-benzyl-1H-pyrazol-3-yl)phenyl)pyridin-3-yl)acrylamide] | – | < 1000 nM | 1000 to 10000 nM | – | – | –
16 | CNS(=O)(=O)CCNc1ccc(-c2ccc(Cl)cc2)cc1-c1ccn(C)n1 [compound 121, 2-((4′-chloro-3-(1-methyl-1H-pyrazol-3-yl)-[1,1′-biphenyl]-4-yl)amino)-N-methylethane-1-sulfonamide] | – | < 1000 nM | 1000 to 10000 nM | – | – | –
17 | CCC(=O)NCCNc1ccc(-c2ccccc2)cc1-c1ccn(Cc2cccnc2)n1 [compound 077] | – | < 1000 nM | – | – | – | –
18 | CSCCNc1ccc(-c2ccccc2)cc1-c1ccn(Cc2cccnc2)n1 [compound 065, N-(2-(methylthio)ethyl)-3-(1-(pyridin-3-ylmethyl)-1H-pyrazol-3-yl)-[1,1′-biphenyl]-4-amine] | – | 1000 to 20000 nM | – | – | – | –

Further lines, results first:

Row | EC50 (NCI-H2052; Homo sapiens, NCI-H2052, 144 h) | EC50 ([1]; Homo sapiens, HEK-293T) | EC50 (NCI-H226; Homo sapiens, 144 h) | EC50 (NCI-H2052) | EC50 [1] | EC50 (NCI-H226) | SMILES
19 | 1000 to 10000 nM | < 1000 nM | < 1000 nM | – | – | – | C=CC(=O)NCc1cc(-c2ccc(F)cc2)nc(-c2ccn(C(F)F)n2)n1 [Cpd. No. 255, N-((2-(1-(difluoromethyl)-1H-pyrazol-3-yl)-6-(4-fluorophenyl)pyrimidin-4-yl)methyl)acrylamide]
20 | > 10000 nM | < 1000 nM | > 10000 nM | – | – | – | CNS(=O)(=O)CCNc1ccc(-c2ccc(F)cc2)nc1-c1ccn(C(F)F)n1 [compound 132, 2-((2-(1-(difluoromethyl)-1H-pyrazol-3-yl)-6-(4-fluorophenyl)pyridin-3-yl)amino)-N-methylethane-1-sulfonamide]
21 | > 10000 nM | 1000 to 20000 nM | > 10000 nM | – | – | – | CNS(=O)(=O)CCNc1cc(-c2ccccc2)cc(-c2ccn(Cc3cccnc3)n2)c1 [compound 052, N-methyl-2-((5-(1-(pyridin-3-ylmethyl)-1H-pyrazol-3-yl)-[1,1′-biphenyl]-3-yl)amino)ethane-1-sulfonamide]
22 | 1000 to 10000 nM | < 1000 nM | < 1000 nM | – | – | – | C=CC(=O)Nc1cc(-c2ccccc2)cc(-c2ccn(Cc3cccnc3)n2)c1 [compound 083, N-(5-(1-(pyridin-3-ylmethyl)-1H-pyrazol-3-yl)-[1,1′-biphenyl]-3-yl)acrylamide]
23 | < 1000 nM | < 1000 nM | < 1000 nM | – | – | – | C=CC(=O)NCc1ncc(-c2ccc(F)cc2)cc1-c1ccn(C2CC2)n1 [compound 202, N-((3-(1-cyclopropyl-1H-pyrazol-3-yl)-5-(4-fluorophenyl)pyridin-2-yl)methyl)acrylamide]
24 | < 1000 nM | < 1000 nM | < 1000 nM | – | – | – | C=CC(=O)NCc1cnc(-c2ccc(F)cc2)cc1-c1ccn(C2CC2)n1 [compound 206, N-((4-(1-cyclopropyl-1H-pyrazol-3-yl)-6-(4-fluorophenyl)pyridin-3-yl)methyl)acrylamide]
25 | < 1000 nM | < 1000 nM | < 1000 nM | – | – | – | C=CC(=O)NCc1ccc([C@H]2CC[C@@H](C(F)(F)F)CC2)cc1-c1ccn(C)n1 [compound 179, cis-N-(2-(1-methyl-1H-pyrazol-3-yl)-4-(4-(trifluoromethyl)cyclohexyl)benzyl)acrylamide]
26 | < 1000 nM | < 1000 nM | < 1000 nM | – | – | – | C=CC(=O)NCc1ccc(-c2ccc(F)cc2)cc1-c1cn(C)nn1 [compound 184, N-((4′-fluoro-3-(1-methyl-1H-1,2,3-triazol-4-yl)-[1,1′-biphenyl]-4-yl)methyl)acrylamide]
27 | – | – | – | > 10000 nM | < 1000 nM | < 1000 nM | C=CC(=O)N1CCC(c2cnc(-c3ccc(F)cc3)cc2-c2ccn(C(F)F)n2)C1 (stereo not drawn) [Cpd. No. 262-En2, 1-(3-(4-(1-(difluoromethyl)-1H-pyrazol-3-yl)-6-(4-fluorophenyl)pyridin-3-yl)pyrrolidin-1-yl)prop-2-en-1-one]
28 | < 1000 nM | < 1000 nM | < 1000 nM | – | – | – | C=CC(=O)NCc1ccc(-c2ccc(F)cc2)cc1-c1cc[nH]n1 [compound 161, N-((4′-fluoro-3-(1H-pyrazol-3-yl)-[1,1′-biphenyl]-4-yl)methyl)acrylamide]
29 | < 1000 nM | < 1000 nM | < 1000 nM | – | – | – | C=CC(=O)NCc1cnc(-c2ccc(F)cc2)nc1-c1ccn(C(F)F)n1 [compound 254, N-((4-(1-(difluoromethyl)-1H-pyrazol-3-yl)-2-(4-fluorophenyl)pyrimidin-5-yl)methyl)acrylamide]
30 | – | < 1000 nM | > 10000 nM | – | – | – | CNS(=O)(=O)CCNc1ccc(-c2cccc(F)c2)cc1-c1ccn(Cc2cccnc2)n1 [compound 088]
31 | – | 1000 to 20000 nM | – | – | – | – | c1ccc(-c2cccc(-c3ccn(CC4CCNCC4)n3)c2)cc1 [compound 030, 4-((3-([1,1′-biphenyl]-3-yl)-1H-pyrazol-1-yl)methyl)piperidine]
